US20200276168A1, “Sustained Release Pharmaceutical Compositions and Methods of Use” (Qrono, Inc., priority 2015, published 2020)

System: head and neck squamous cell carcinoma cells
Experiment: head and neck squamous cell carcinoma xenograft model, tumor volume monitored for 4 weeks
Type: in vivo, mice
Details: payload equal to low dose sustained release formulation (210 nanograms), FIG. 2
Description: Athymic mice were injected subcutaneously with head and neck squamous cell carcinoma cells to form tumors. Mice were divided into groups and treated with a sustained release composition according to the present invention, QR206, at a high dose (2.1 micrograms) a low dose (210 nanograms), or with a low dose of unformulated drug (epothilone D, 210 nanograms). Tumor volume was monitored for 4 weeks.

For C/C1=C/C[C@@H](/C(C)=C/c2csc(C)n2)OC(=O)C[C@H](O)C(C)(C)C(=O)[C@H](C)[C@@H](O)[C@@H](C)CCC1 [EpoD, Epothilone D], which “tumor growth rate of vehicle only control compared with the unformulated drug” value is on record?
Its value is “higher tumor growth rate”.
